From US5395932A, “2,3-,4-,5-,6-,7-,8-,9- and/or 10-substituted dibenzoxazepine compounds, pharmaceutical compositions and methods of use” (G. D. Searle & Co., priority 1993, dated 1995)
Where a name gives a salt, the structure may show the parent alone.

Columns and labels:
[1] = target: T1, prostaglandin E2-induced contractions of segments of guinea pig ileum (Cavia porcellus, UniProt A0A286XHJ6); experiment: Prostaglandin (PGE) Antagonism Assay (guinea pig ileum); format: cell-based, male albino guinea pigs; conditions: estimated from 3 micromolar (dose ratio ≥2) or Schild plot (dose ratio ≥5); 37° C.; read-out: PGE ANTAGONISM IN GUINEA PIG ILEUM (pA2) (converted)
T1 construct: Segments of ileum about 2 cm long were then cut and mounted in a 10-mL tissue bath; from tissue; host or cells: guinea pig ileum segments
T1 sequence (A0A286XHJ6 1-405): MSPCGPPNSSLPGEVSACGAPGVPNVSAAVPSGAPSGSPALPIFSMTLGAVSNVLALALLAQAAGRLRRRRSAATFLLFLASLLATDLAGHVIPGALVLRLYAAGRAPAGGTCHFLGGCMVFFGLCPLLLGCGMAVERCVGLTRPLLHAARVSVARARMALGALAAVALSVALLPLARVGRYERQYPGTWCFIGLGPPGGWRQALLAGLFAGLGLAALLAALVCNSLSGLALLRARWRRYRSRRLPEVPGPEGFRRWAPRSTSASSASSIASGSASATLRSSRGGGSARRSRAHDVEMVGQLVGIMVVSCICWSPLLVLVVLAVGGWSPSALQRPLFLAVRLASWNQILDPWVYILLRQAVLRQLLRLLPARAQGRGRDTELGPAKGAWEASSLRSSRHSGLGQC
Source text: The phrase "EC50 concentration" as used herein means that concentration of a compound or drug which is necessary to elicit a 50% maximal biological response and, thus, which is necessary to elicit a 50% reduction in the contractions of guinea pig ileum segments in a prostaglandin antagonism assay. (b) Prostaglandin (PGE) Antagonism Assay In order to determine the effectiveness of several of the compounds of the present invention ("test compounds") as prostaglandin E2 antagonists,a prostaglandin antagonism assay was conducted, as described below, to determine the ability of these compounds to inhibit prostaglandin E2 -induced contractions of segments of guinea pig ileum. […] Male albino guinea pigs weighing 200 to 500 grams were sacrificed by cervical dislocation. The ilea were then quickly removed from the guinea pigs and placed in a modified Tyrode solution, a solution which is known to those skilled in the art, containing one-half of the usual amount of magnesium ions. Segments of ileum about 2 cm long were then cut and mounted in a 10-mL tissue bath containing the modified Tyrode solution. The solution was maintained at 37° C. and aerated with a gaseous mixture of 95% oxygen and 5% carbon dioxide. Data for a control prostaglandin E2 dose response curve plotting concentration of prostaglandin E2 versus the intensity of contractions, detected isotonically, was then obtained by experimentally adjusting the dose of the prostaglandin E2 being injected into the tissue bath, in a manner known by those of skill in the art. Solutions or suspensions containing an initial concentration (3 micromolar) of a test compound in modified Tyrode solution ("test solutions/suspensions") were then separately substituted for the control bath solution. Each test solution/suspension was then kept in constant contact with the ileum tissue, except for brief periods to drain the bath in preparation for rinsing with fresh test solution/suspension. A second prostaglandin E2 dose response curve was then generated for prostaglandin E2 in the presence of a test compound. A dose ratio of EC50 doses was then calculated from the results of each test in a manner known by those of skill in the art. A test compound was determined to be "active" if the initial concentration used yielded at least a two-fold shift (dose ratio greater than or equal to 2) in the dose response curve for prostaglandin E2. […] The compounds of the present invention which were tested in this assay, and for which results are presented in Table 1, correspond to the particular examples specified in Table 1.

[2] = Writhing Assay (PBQ-induced writhing, analgesia); format: in vivo, Charles River male albino mice; conditions: Mus musculus, po, intragastric; for responders at 30 mg/kg: 30 mg per kilogram, 25 minutes before PBQ i.p., writhes ≤ one-half median of saline control, read-out: WRITHING ASSAY, number of mice out of 9 or 10 in which test compound produced analgesia (converted); for ED50: mice, PBQ
Protocol: The phrase "ED50 dose" as used herein means that dose of a compound or drug which produced a biological effect, such as producing analgesia, in 50% of the animals to which the compound or drug was administered. The Writhing Assay is one of the most widely-used experimental procedures for measuring the analgesic activity of different narcotic and nonnarcotic analgesic agents, and involves the continuous, chemically-induced pain of visceral origin to an animal, such as a mouse or rat. [Gyires et al., Arch. int. Pharmacodyn, 267, 131-140 (1984); […] al., Fed. Proc., 15, 494 (1956); Koster et al., Fed. Proc., 18, 412 (1959); and Witken et al., J. Pharmacol. exp. Ther., 133, 400-408 (1961).] Chemicals which may be used to induce this pain include phenylbenzoquinone (PBQ) and acetic acid. As a result of the chemical irritation to the animal, a characteristic stretching and writhing of the animal (dorsiflexion of the animal's back, extension of its hindlimbs and the strong contraction of its abdominal musculature) will generally occur. […] Drugs which reduce the number of writhes of the animal appear to restore the normal nociceptive threshold of the animal. […] Charles River male albino mice, weighing 20 to 30 grams were used in this assay. Twenty-five minutes after intragastric administration to nine or ten mice of 30 mg per kilogram of body weight of a compound of the present invention ("test compound"), […] per 10 g of body weight of a 0.025% w/v solution of PBQ was injected intraperitoneally into each mouse. Ten mice which were given saline in place of a test compound of the invention were used as a control group. Five minutes later, each mouse was individually placed into a glass beaker for observation, and the number of writhes occurring during the following ten-minute period was counted. A test compound was considered to have produced analgesia in a mouse if, in accordance with the conditions set forth above, and under the test criteria employed for this assay, after the administration of 30 mg per kilogram of body weight of a compound of the present invention to the mouse, the number of writhes elicited by a mouse injected with PBQ was equal to, or less than, one-half the median number of writhes recorded for the saline-treated control group of mice that day, as described by Taber in "Predictive Value of Analgesic Assays in Mice and Rats," Advances in Biochemical Psychopharmacology, 8, 191 (1974). The results for the particular compounds of the present invention analyzed in this assay, and discussed in the examples identified below which correspond thereto, are presented in Table 1 hereinbelow as fractions under the heading "WRITHING ASSAY." The fractions indicate the number of mice out of nine or ten in which a test compound produced analgesia. The standard initial screening dose of a test compound employed in this assay was 30 milligrams per […] of body weight. If this initial screening dose of the test compound produced analgesia in seven of nine or ten mice, then the effect of additional doses of the test compound on the writhing response was evaluated, and then the ED50 dose was generally calculated. (The slopes of the dose-response curves for all test compounds analyzed were compared as described by Tallarida and Murray, Manual of Pharmacologic Calculations, Page 11 (Springer Verlag, New York, 1981)). All ED50 doses calculated are also presented below as whole numbers in Table 1, under the heading "WRITHING ASSAY."

Row | Compound | Kb [1] [µM] | responders at 30 mg/kg [2] [%] | ED50 [2] [mg/kg]
1 | OC(CCc1ccncc1)c1csc(N2Cc3ccccc3Oc3ccc(Cl)cc32)n1 (stereo not drawn) [Example 34B, α-[2-(8-Chlorodibenz[b,f][1,4]oxazepin-10(11H)-yl)-4-thiazolyl]-4-pyridinepropanol, dihydrochloride] | 1.58 | 50 | 
2 | O=C(O)c1csc(CN2Cc3ccccc3Oc3ccc(Cl)cc32)n1 [Example 20, 2-[(8-chlorodibenz[b,f][1,4]oxazepin-10(11H)yl)methyl]-4-thiazolecarboxylicacid, sodium salt] | 0.00794 | 50 | 
3 | O=C(NCCc1ccccn1)c1coc(CN2Cc3ccccc3Oc3ccc(Cl)cc32)n1 [Example 9, 2-[(8-chlorodibenz[b,f][1,4]oxazepin-10(11H)yl)methyl]-N-[2-(2-pyridinyl)ethyl]-4-oxazolecarboxamide, hydrochloride] | 0.2 | 70 | 
4 | O=C(O)c1coc(CN2Cc3ccccc3Oc3ccc(Cl)cc32)n1 [Example 8A, 2-[(8-chlorodibenz[b,f][1,4]oxazepin-10(11H)yl)methyl]-4-oxazole carboxylic acid, sodium salt] | 0.0398 | 10 | 
5 | CCOC(=O)c1csc(CN2Cc3ccccc3Oc3ccc(Cl)cc32)n1 [Example 19, ethyl 2-[(8-chlorodibenz[b,f][1,4]oxazepine-10(11H)yl)methyl]-4-thiazolecarboxylate] | 1.58 | 10 | 
6 | O=C(Nc1cccnc1)c1csc(N2Cc3ccccc3Oc3ccc(Cl)cc32)n1 [Example 29, 2-(8-Chlorodibenz[b,f][1,4]oxazepin-10(11H)-yl)-N-3-pyridinyl-4-thiazolecarboxamide, hydrochloride] | 1 | 60 | 
7 | OC(/C=C\c1ccncc1)c1csc(N2Cc3ccccc3Oc3ccc(Cl)cc32)n1 (centres unmarked) [Example 34A, 2-(8-Chlorodibenz[b,f][1,4]oxazepin-10(11H)-yl)-a-[2Z(4-pyridinyl)ethenyl]-4-thiazolemethanol, hydrochloride] | 0.794 |  | 9.7
8 | O=C(Nc1ccncc1)c1coc(CN2Cc3ccccc3Oc3ccc(Cl)cc32)n1 [Example 17, 2-[(8-chlorodibenz[b,f][1,4]oxazepin-10(11H)yl)methyl]-N-4-pyridinyl-4-oxazolecarboxamide, hydrochloride] | 0.398 |  | 
9 | CCOC(=O)c1coc(CN2Cc3ccccc3Oc3ccc(Cl)cc32)n1 [Example 7, Ethyl 2-[(8-chlorodibenz[b,f][1,4]oxazepin-10(11H)yl)methyl]-4-oxazole carboxylate] | 0.794 | 90 | 
10 | O=C(NCc1cccs1)c1coc(CN2Cc3ccccc3Oc3ccc(Cl)cc32)n1 [Example 15, 2-[(8-chlorodibenz[b,f][1,4]oxazepin-10(11H)yl)methyl]-N-(2-thienylmethyl)-4-oxazolecarboxamide] | 0.158 | 70 | 
11 | O=C(NCc1ccncc1)c1csc(CN2Cc3ccccc3Oc3ccc(Cl)cc32)n1 [Example 21, 2-[(8-chlorodibenzb,f][1,4]oxazepin-10(11H)yl)methyl]-N-(4-pyridinylmethyl)-4-thiazolecarboxamide, acetate, hydrochloride] | 0.794 | 70 | 
12 | O=C(CCc1ccncc1)c1csc(N2Cc3ccccc3Oc3ccc(Cl)cc32)n1 [Example 32, 1-[2-(8-Chlorodibenz[b,f][1,4]oxazepin-10(11H)-yl)-4-thiazolyl]-3-(4-pyridinyl)-1-propanone, monohydrochloride] | 0.631 | 60 | 
13 | O=C(NCc1ccccn1)c1coc(CN2Cc3ccccc3Oc3ccc(Cl)cc32)n1 [Example 10, 2-[(8-chlorodibenz[b,f][1,4]oxazepin-10(11H)yl)methyl]-N-(2-pyridinylmethyl)-4-oxazolecarboxamide, monohydrochloride] | 0.0316 | 20 | 
14 | Cl.O=C(NCc1ccncc1)c1csc(N2Cc3ccccc3Oc3ccc(Cl)cc32)n1 [Example 26, 2-(8-Chlorodibenz[b,f][1,4]oxazepin-10(11H)-yl)-N-(4-pyridinylmethyl)-4-thiazolecarboxamide, monohydrochloride] | 0.794 |  | 9.77
15 | O=C(OCc1ccncc1)c1coc(CN2Cc3ccccc3Oc3ccc(Cl)cc32)n1 [Example 12, 4-pyridinylmethyl 2-[(8-chlorodibenz[b,f][1,4]oxazepin-10(11H) -yl)methyl]-4-oxazole carboxylate, hydrochloride] |  | 40 | 
16 | CN(C)CCNC(=O)c1csc(N2Cc3ccccc3Oc3ccc(Cl)cc32)n1 [Example 27, 2-(8-Chlorodibenz[b,f][1,4]Oxazepin-10(11H)-yl)-N-[2-(dimethylamino)ethyl]-4-thiazolecarboxamide, monohydrochloride] |  | 60 | 
17 | O=C(Nc1ccccn1)c1csc(N2Cc3ccccc3Oc3ccc(Cl)cc32)n1 [Example 30, 2-(8-Chlorodibenz[b,f][1,4]oxazepin-10(11H)-yl)-N-2-pyridinyl-4-thiazolecarboxamide, hydrochloride] |  | 40 | 
18 | Cc1nc(CN2Cc3ccccc3Oc3ccc(Cl)cc32)cs1 [Example 23, 8-chloro-10,11-dihydro-10-[(2-methyl-4-thiazolyl)methyl]dibenz[b,f][1,4]oxazepine hydrochloride] |  | 11.1 | 
19 | O=C(Nc1cncnc1)c1coc(CN2Cc3ccccc3Oc3ccc(Cl)cc32)n1 [Example 16, 2-[(8-chlorodibenz[b,f][1,4]oxazepin-10(11H)yl)methyl]-N-5-pyrimidinyl-4-oxazolecarboxamide] | 3.16 |  | 
